Experimental data from patent US9067897B2, “2,4-Diaminoquinazolines for spinal muscular atrophy” (Families of Spinal Muscular Atrophy, priority 2004, dated 2015).
Where a name gives a salt, the structure may show the parent alone.

Key:
SMN = conditions: cited from earlier work
SMN2 promoter = SMN2 promoter assay (β-lactamase reporter) in NSC-34 cells; assay type: cell-based, mouse; conditions: SMN2 promoter driving β-lactamase, 12 point dose curve, average of 3-6 dose curve experiments

Row | Molecule | EC50 (SMN2 promoter; Mus musculus) | further results
1 | phenylbuytreate | – | SMN expression (SMN): increase SMN expession
2 | CCCC(=O)[O-].[Na+] [sodium butyrate] | – | SMN expression (SMN): increase SMN expession
3 | COc1cc(OC)cc(C(C)Oc2cccc3nc(N)nc(N)c23)c1 (stereo not drawn) [Example 67, 5-[1-(3,5-Dimethoxyphenyl)-ethoxy]-quinazoline-2,4-diamine] | < 1000 nM | –
4 | Nc1nc(N)c2c(COc3cccc(Cl)c3)cccc2n1 [Example 158, 5-(3-Chlorophenoxymethyl)quinazoline-2,4-diamine] | < 1000 nM | –
5 | Nc1nc(N)c2c(OCC3CC3)cccc2n1 [Example 16, 5-(Cyclopropylmethoxy)quinazoline-2,4-diamine] | < 1000 nM | –
6 | Nc1nc(N)c2c(OCc3ccc(C(F)(F)F)cc3)cccc2n1 [Example 100, 5-(4-Trifluoromethylbenzyloxy)-quinazoline-2,4-diamine] | < 1000 nM | –
7 | CC(Oc1cccc2nc(N)nc(N)c12)c1cccc(F)c1 (stereo not drawn) [Example 93, 5-[1-(3-Fluorophenyl)-ethoxy]-quinazoline-2,4-diamine] | < 1000 nM | –
8 | Nc1nc(N)c2c(OCc3ccoc3)cccc2n1 [Example 34, 5-(Furan-3-ylmethoxy)quinazoline-2,4-diamine] | < 1000 nM | –
9 | Nc1nc(N)c2c(OC3C4CC5CC(C4)CC3C5)cccc2n1 (stereo not drawn) [Example 119, 5-(Adamanta-2-yloxy)quiazoline-2,4-diamine] | – | EC50 (SMN2 promoter): < 1000 nM
10 | Nc1nc(N)c2c(OCC3CCCCC3)cccc2n1 [Example 17, 5-(Cyclohexylmethoxy)quinazoline-2,4-diamine] | 1000 to 5000 nM | –
11 | CC(Oc1cccc2nc(N)nc(N)c12)c1ccc2c(c1)OCO2 (stereo not drawn) [Example 64, 5-(1-Benzo[1,3]-dioxol-5-yl-ethoxy)-quinazoline-2,4-diamine] | < 1000 nM | –
12 | 2-(2,4-Diaminoquinazolin-5-yloxy)-1-(4-fluorophenyl)ethanol [Example 167] | – | EC50 (SMN2 promoter): < 1000 nM
13 | Nc1nc(N)c2c(OCc3cccc(C(F)(F)F)c3)cccc2n1 [Example 98, 5-(3-Trifluoromethylbenzyloxy)-quinazoline-2,4-diamine] | < 1000 nM | –
14 | CC(Oc1cccc2nc(N)nc(N)c12)c1cccc2ccccc12 (stereo not drawn) [Example 111, 5-(1-Naphthalen-1-yl-ethoxy)-quinazoline-2,4-diamine] | 1000 to 5000 nM | –
15 | Nc1nc(N)c2c(OCc3cccc(Cl)c3)cccc2n1 [Example 5, 5-(3-Chlorobenzyloxy)quinazoline-2,4-diamine] | < 1000 nM | –
16 | Nc1nc(N)c2c(OCc3cnc4ccccc4c3)cccc2n1 [Example 112, 5-(Quinolin-3-ylmethoxy)-quinazoline-2,4-diamine] | < 1000 nM | –
17 | COc1cc(Cl)ccc1Oc1cccc2nc(N)nc(N)c12 [Example 71, 5-(4-Chloro-2-methoxyphenoxy)-quinazoline-2,4-diamine] | < 1000 nM | –
18 | COc1cccc(C(C)Oc2cccc3nc(N)nc(N)c23)c1 (stereo not drawn) [Example 66, 5-[1-(3-Methoxyphenyl)-ethoxy]-quinazoline-2,4-diamine] | < 1000 nM | –

Further lines, with some results ahead:

Row | EC50 (SMN2 promoter; Mus musculus) | Molecule | further results
19 | < 1000 nM | Nc1nc(N)c2c(Cc3ccccc3)cccc2n1 [Example 24, 5-Benzylquinazoline-2,4-diamine] | –
20 | < 1000 nM | Nc1nc(N)c2c(OCc3ccccc3C(F)(F)F)cccc2n1 [Example 99, 5-(2-Trifluoromethylbenzyloxy)-quinazoline-2,4-diamine] | –
21 | < 1000 nM | Nc1nc(N)c2c(OCC(O)c3cccc(Cl)c3)cccc2n1 (stereo not drawn) [Example 161, 1-(3-Chlorophenyl)-2-(2,4-diaminoquinazolin-5-yloxy)ethanol] | –
22 | < 1000 nM | Nc1nc(N)c2c(COc3ccc(F)cc3)cccc2n1 [Example 45, 5-(4-Fluorophenoxymethyl)quinazoline-2,4-diamine] | –
23 | 1000 to 5000 nM | C[C@@H](Oc1cccc2nc(N)nc(N)c12)c1cccc2ccccc12 [Example 110, 5-((R)-1-Naphthalen-1-yl-ethoxy)-quinazoline-2,4-diamine] | –
24 | < 1000 nM | C[C@H](Oc1cccc2nc(N)nc(N)c12)c1ccccc1 [Example 42, 5-((S)-1-Phenylethoxy)quinazoline-2,4-diamine] | –
25 | 1000 to 5000 nM | COc1ccc(OCc2cccc3nc(N)nc(N)c23)cc1 [Example 148, 5-(4-Methoxyphenoxymethyl)quinazoline-2,4-diamine] | –
26 | < 1000 nM | COc1cccc(COc2cccc3nc(N)nc(N)c23)c1 [Example 143, 5-(3-Methoxybenzyloxy)quinazoline-2,4-diamine] | –
27 | < 1000 nM | Nc1nc(N)c2c(OCc3ccc(Cl)cc3)cccc2n1 [Example 2, 5-(4-Chlorobenzyloxy)quinazoline-2,4-diamine] | –
28 | < 1000 nM | CC(Oc1cccc2nc(N)nc(N)c12)C1CCCC1 (stereo not drawn) [Example 120, 5-(1-Cyclopentyl-ethoxy)-quinazoline-2,4-diamine] | –
29 | < 1000 nM | Nc1nc(N)c2c(OC3Cc4ccccc4C3)cccc2n1 [Example 40, 5-(Indan-2-yloxy)quinazoline-2,4-diamine] | –
30 | < 1000 nM | COc1ccc(Cl)cc1COc1cccc2nc(N)nc(N)c12 [Example 88, 5-(5-Chloro-2-methoxybenzyloxy)quinazoline-2,4-diamine] | –
31 | < 1000 nM | Nc1nc(N)c2c(OCc3cc(Cl)ccc3CO)cccc2n1 [Example 89, [4-Chloro-2-(2,4-diamino-quinazolin-5-yloxymethyl)-phenyl]-methanol hydrochloride] | –
32 | < 1000 nM | Nc1nc(N)c2c(OCC3CCN(C(=O)c4cccc(Cl)c4)CC3)cccc2n1 [Example 134, (3-Chlorophenyl)-[4-(2,4-diamino-quinazolin-5-yloxymethyl)-piperidin-1-yl]-methanone] | –
33 | < 1000 nM | Nc1nc(N)c2c(O[C@@H]3CCc4ccc(Cl)cc43)cccc2n1 [Example 150, 5-((R)-6-Chloroindan-1-yloxy)quinazoline-2,4-diamine] | –
34 | < 1000 nM | Nc1nc(N)c2c(-c3cccc(Cl)c3)cccc2n1 [Example 91, 5-(3-Chlorophenyl)-quinazoline-2,4-diamine] | –
35 | 5000 to 10000 nM | CC(C)(C)C(Oc1cccc2nc(N)nc(N)c12)c1ccc(Cl)cc1 (stereo not drawn) [Example 51, 5-[1-(4-Chlorophenyl)-2,2-dimethylpropoxy]quinazoline-2,4-diamine] | –
36 | < 1000 nM | CC(Oc1cccc2nc(N)nc(N)c12)c1ccc(Cl)cc1 (stereo not drawn) [Example 49, 5-[1-(4-Chlorophenyl)ethoxy]quinazoline-2,4-diamine] | –
37 | < 1000 nM | CC(Oc1cccc2nc(N)nc(N)c12)c1ccc(C(F)(F)F)cc1 (stereo not drawn) [Example 105, 5-[1-(4-Trifluoromethylphenyl)ethoxy]quinazoline-2,4-diamine] | –
38 | < 1000 nM | C[C@H](Oc1cccc2nc(N)nc(N)c12)c1ccc2ccccc2c1 [Example 109, 5-((S)-1-Naphthalen-2-yl-ethoxy)-quinazoline-2,4-diamine] | –
39 | < 1000 nM | Nc1nc(N)c2c(OCCc3ccc(Cl)cc3)cccc2n1 [Example 9, 5-[2-(4-Chlorophenyl)ethoxy]quinazoline-2,4-diamine] | –
40 | < 1000 nM | Nc1nc(N)c2c(OCc3ccccc3F)cccc2n1 [Example 96, 5-(2-Fluorobenzyloxy)-quinazoline-2,4-diamine] | –
41 | < 1000 nM | Nc1nc(N)c2c(OCc3ccc(F)c(F)c3)cccc2n1 [Example 87, 5-(3,4-Difluorobenzyloxy)quinazoline-2,4-diamine] | –
42 | < 1000 nM | CN1CCCCC1COc1cccc2nc(N)nc(N)c12 (stereo not drawn) [Example 117, 5-(1-Methyl-piperidin-2-ylmethoxy)-quinazoline-2,4-diamine] | –
